Measured values as given in patent publication US20250051319A1 (AUGUSTINE THERAPEUTICS, priority 2021, published 2025).

Tests used:
[1] = biological target: T1, human full-length recombinant HDAC6 (Homo sapiens (Human), UniProt Q9UBN7); experiment: HDAC6 enzymatic activity assay (Reaction Biology Corporation, RHKKAc fluorogenic peptide); assay type: biochemical; settings: Reaction Biology Corporation protocol, RHKKAc fluorogenic peptide 10 μM; read-out: HDAC6 biochem
Method: Dose response testing of HDAC6 and HDAC 1 were run at Reaction Biology Corporation (RBC). Inhibition of HDAC enzymes was performed using N-terminal GST tagged human full-length recombinant HDAC6 (H88-30G, SignalChem) and C-terminal FLAG His tag human full-length recombinant HDAC1 produced in insect cells (KDA-21-365, RBC). Enzyme reactions were run in 50 mM Tris-HCl, pH8.0, 137 mM NaCl, 2.7 mM KCl, and 1 mM MgCl2 with 1 mg/ml BSA, 1% DMSO freshly added. 2× enzyme was delivered in the wells of the reaction plate except for the “no enzyme” control wells. In the latter, buffer was added. Compounds in 100% DMSO were delved into the enzyme mixture by acoustic technology (Echo550). Plates are spun down and compounds were incubation with the enzyme for 10 min at room temperature. 2× Fluorogenic peptide from p53 residues 379-382 (RHKKAc, 10 μM final concentration) was added in all wells to initiate the reaction, followed by 1 h incubation at 30° C. Developer containing Trichostatin A was added to stop the reaction and generate fluorescent color. A kinetic measurement was carried out for 20 min with 5 min interval on the Envision plate reader (Perkin Elmer, Ex/Em=360/460). End point reading i.e., plateau of the development reaction was used for analysis. Data was reported by RBC as percentage enzyme activity. Percentage inhibition was calculated by subtracting percentage enzyme activity from 100. IC50 values were calculated using GraphPad Prism 9 based on the log(inhibitor) vs. response—Variable slope (four parameters) equation.

[2] = biological target: catalytic domain 2 (CD2) of HDAC6 (Homo sapiens (Human), UniProt Q9UBN7); experiment: Cellular target engagement assay - NanoBRET; assay type: cell-based; settings: NanoLuc-HDAC6(CD2) in HEK293T cells, 2 hours, read-out: IC50 (HDAC6(CD2) interaction)
[3] = biological target: human full-length recombinant HDAC1 (Homo sapiens (Human), UniProt Q13547); experiment: HDAC1 enzymatic activity assay (alternative protocol, Ac-Gly-Ala-Lys(Ac)-AMC); assay type: biochemical; settings: 4 nM enzyme, read-out: HDAC1 biochem
Method: (§1) Inhibition of HDAC enzymes was performed in 384-well plate format using human full-length recombinant HDAC1 and HDAC6, isolated from a baculovirus expression system in Sf9 cells (BPS Bioscience). Reaction buffer for HDAC1 contained 50 mM Tris HCl pH 8.0, 137 mM NaCl, 2.7 mM KCl, 1 mM MgCl2, 0.1 mg/mL BSA, and reaction buffer for HDAC6 contained 50 mM Tris/HCl, pH 8.0, 137 mM NaCl, 2.7 mM KCl, 250 μM EDTA, 1 mM DTT, 0.1 mg/mL BSA. Compounds (dissolved in 100% DMSO) or DMSO (vehicle) were diluted in assay buffer at 3× final assay concentration and then added to assay plates. SAHA ([…]) was used as a positive control. 3× final assay concentration of recombinant enzymes (final assay concentration is 4 nM and 5 nM for HDAC1 and HDAC6, respectively) were preincubated for 10 minutes with test compounds at room temperature. Afterwards, 3× final assay concentration of an acetylated fluorogenic peptide (Ac-Gly-Ala-Lys(Ac))-AMC, Bachem; final assay concentration is 12 µM and 40 µM for HDAC1 and HDAC6, respectively) was added to assay plate, allowing deacetylase reactions to incubate for 60 minutes at room temperature. The developer reagent containing 5 μM SAHA and 50 μM trypsin was added to stop the deacetylase reaction and generate AMNC-fluorescence. 15 minutes after addition of developer reagent, endpoint measurements were taken using CLARIOstar (BMG Labtech) plate reader (excitation/emission: 360/450). Fluorescence signals were normalized for each plate using GraphPad Prism software: reaction HDAC-substrate in presence of DMSO was set to 100% while reaction HDAC-substrate in presence of 10 μM SAHA was set to 0%.

[4] = biological target: T1, human full-length recombinant HDAC6; experiment: HDAC6 enzymatic activity assay (alternative protocol, Ac-Gly-Ala-Lys(Ac)-AMC); assay type: biochemical; settings: 5 nM enzyme, read-out: HDAC6 biochem
Method: as §1

T1 sequence (Q9UBN7 whole entry): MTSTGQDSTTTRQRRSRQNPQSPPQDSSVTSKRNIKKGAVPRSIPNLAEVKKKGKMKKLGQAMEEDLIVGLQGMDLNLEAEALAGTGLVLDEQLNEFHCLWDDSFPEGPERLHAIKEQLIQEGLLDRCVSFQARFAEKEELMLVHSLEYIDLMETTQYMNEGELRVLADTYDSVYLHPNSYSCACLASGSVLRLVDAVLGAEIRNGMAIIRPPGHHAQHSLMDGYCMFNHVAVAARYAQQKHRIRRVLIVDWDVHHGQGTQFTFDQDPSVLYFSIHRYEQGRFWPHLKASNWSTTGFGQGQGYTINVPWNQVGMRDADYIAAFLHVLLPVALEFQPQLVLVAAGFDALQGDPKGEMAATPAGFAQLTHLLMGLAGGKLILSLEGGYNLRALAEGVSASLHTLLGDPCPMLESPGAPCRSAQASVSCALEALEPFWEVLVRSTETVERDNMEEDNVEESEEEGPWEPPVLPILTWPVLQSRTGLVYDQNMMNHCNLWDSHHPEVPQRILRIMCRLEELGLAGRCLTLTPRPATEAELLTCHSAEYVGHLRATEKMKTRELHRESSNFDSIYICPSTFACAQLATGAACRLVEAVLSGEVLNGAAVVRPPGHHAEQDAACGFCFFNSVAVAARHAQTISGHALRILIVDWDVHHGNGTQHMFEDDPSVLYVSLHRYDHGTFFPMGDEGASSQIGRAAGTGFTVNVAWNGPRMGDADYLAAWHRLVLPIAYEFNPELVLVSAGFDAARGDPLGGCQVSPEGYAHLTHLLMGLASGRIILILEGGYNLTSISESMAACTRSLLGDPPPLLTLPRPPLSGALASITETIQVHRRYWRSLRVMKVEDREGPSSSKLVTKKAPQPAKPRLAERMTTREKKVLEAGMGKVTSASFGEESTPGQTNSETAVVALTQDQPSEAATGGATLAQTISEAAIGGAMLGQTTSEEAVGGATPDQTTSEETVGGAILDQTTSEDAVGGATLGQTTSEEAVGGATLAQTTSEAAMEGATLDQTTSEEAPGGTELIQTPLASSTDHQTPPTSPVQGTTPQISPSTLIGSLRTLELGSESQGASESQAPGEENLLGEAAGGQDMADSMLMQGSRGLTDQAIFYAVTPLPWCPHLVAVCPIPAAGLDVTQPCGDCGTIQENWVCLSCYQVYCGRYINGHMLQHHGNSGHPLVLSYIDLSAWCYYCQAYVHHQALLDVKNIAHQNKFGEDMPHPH
Sequence of catalytic domain 2 (CD2) of HDAC6 (Q9UBN7 482-800): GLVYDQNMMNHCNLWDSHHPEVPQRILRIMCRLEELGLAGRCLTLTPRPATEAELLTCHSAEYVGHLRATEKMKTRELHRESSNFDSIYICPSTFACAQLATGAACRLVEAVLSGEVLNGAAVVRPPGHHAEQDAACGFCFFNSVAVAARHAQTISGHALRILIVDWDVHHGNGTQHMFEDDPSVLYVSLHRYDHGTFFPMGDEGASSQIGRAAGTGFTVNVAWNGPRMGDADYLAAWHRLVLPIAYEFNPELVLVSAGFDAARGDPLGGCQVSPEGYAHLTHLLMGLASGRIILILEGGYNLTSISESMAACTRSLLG
Sequence of human full-length recombinant HDAC1 (Q13547 whole entry): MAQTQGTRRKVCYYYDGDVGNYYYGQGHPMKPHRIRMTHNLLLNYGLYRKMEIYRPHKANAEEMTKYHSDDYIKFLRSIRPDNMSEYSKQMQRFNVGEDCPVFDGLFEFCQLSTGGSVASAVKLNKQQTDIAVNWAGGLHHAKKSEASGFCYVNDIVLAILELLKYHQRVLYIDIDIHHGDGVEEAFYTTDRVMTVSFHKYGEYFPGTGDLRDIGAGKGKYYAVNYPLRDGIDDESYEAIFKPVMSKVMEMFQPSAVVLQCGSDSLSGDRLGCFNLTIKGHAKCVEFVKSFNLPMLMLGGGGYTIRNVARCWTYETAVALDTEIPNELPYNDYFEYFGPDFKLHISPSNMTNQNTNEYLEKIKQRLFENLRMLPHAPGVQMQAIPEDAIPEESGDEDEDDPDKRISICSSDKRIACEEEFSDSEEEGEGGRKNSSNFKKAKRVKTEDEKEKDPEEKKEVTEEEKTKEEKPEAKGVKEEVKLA

IC50 [1] [nM] | IC50 [2] [nM] | IC50 [3] [µM] | IC50 [4] [nM] | SMILES
≤ 100 | ≤ 100 | – | – | COc1cnc2nc(C(F)F)nc(SCC(=O)c3ccc(CNC(=O)CO)s3)c2c1 [Compound 164, N-((5-(2-((2-(difluoromethyl)-6-methoxypyrido[2,3-d]pyrimidin-4-yl)thio)acetyl)thiophen-2-yl)methyl)-2-hydroxyacetamide]
≤ 100 | ≤ 100 | – | – | COc1cc2c(SCC(=O)c3ccc(CN(C)C(=O)CO)s3)nc(C(F)(F)F)nc2cn1 [Compound 159, 2-hydroxy-N-((5-(2-((6-methoxy-2-(trifluoromethyl)pyrido[3,4-d]pyrimidin-4-yl)thio)acetyl)thiophen-2-yl)methyl)-N-methylacetamide]
≤ 100 | 100 to 500 | – | – | Cn1cc2c(SCC(=O)c3ccc(CNC(=O)CO)s3)nc(C(F)F)nc2n1 [Compound 69, N-((5-(2-((6-(difluoromethyl)-2-methyl-2H-pyrazolo[3,4-d]pyrimidin-4-yl)thio)acetyl)thiophen-2-yl)methyl)-2-hydroxyacetamide]
≤ 100 | 100 to 500 | – | – | COc1cc(F)c2nc(C)nc(SCC(=O)c3ccc(CNC(=O)CO)s3)c2c1 [Compound 108, N-((5-(2-((8-fluoro-6-methoxy-2-methylquinazolin-4-yl)thio)acetyl)thiophen-2-yl)methyl)-2-hydroxyacetamide]
– | 100 to 500 | > 10 | ≤ 100 | CN(C)c1nc(SCC(=O)c2ccc(CNC(=O)C(C)(C)C)s2)c2ccccc2n1 [Example 16, N-((5-(2-((2-(dimethylamino)quinazolin-4-yl)thio)acetyl)thiophen-2-yl)methyl)pivalamide]
– | 100 to 500 | > 10 | ≤ 100 | Cc1nc(SCC(=O)c2ccc(CCNS(C)(=O)=O)s2)c2ccccc2n1 [Compound 94, N-(2-(5-(2-((2-methylquinazolin-4-yl)thio)acetyl)thiophen-2-yl)ethyl)methanesulfonamide]
– | 500 to 1000 | > 10 | ≤ 100 | COCc1nc(SCC(=O)c2ccc(CNC(=O)C(C)(C)C)s2)c2ccccc2n1 [Example 4, N-((5-(2-((2-(methoxymethyl)quinazolin-4-yl)thio)acetyl)thiophen-2-yl)methyl)pivalamide]
– | 100 to 500 | > 10 | ≤ 100 | CN(Cc1ccc(C(=O)CSc2ncnc3c2cnn3C)s1)C(=O)C1CC1 [Example 34, N-methyl-N-((5-(2-((1-methyl-1H-pyrazolo[3,4-d]pyrimidin-4-yl)thio)acetyl)thiophen-2-yl)methyl)cyclopropanecarboxamide]
– | ≤ 100 | > 10 | ≤ 100 | CC(C)(C)C(=O)NCc1ccc(C(=O)CSc2nc(C(F)(F)F)nc3ccccc23)s1 [Example 38, N-((5-(2-((2-(trifluoromethyl)quinazolin-4-yl)thio)acetyl)thiophen-2-yl)methyl)pivalamide]
– | 1000 to 10000 | > 10 | ≤ 100 | Cn1ncc2c(SCC(=O)c3ccc(CNS(=O)(=O)Cc4ccccc4)s3)ncnc21 [Compound 90, N-((5-(2-((1-methyl-1H-pyrazolo[3,4-d]pyrimidin-4-yl)thio)acetyl)thiophen-2-yl)methyl)-1-phenylmethanesulfonamide]
– | 100 to 500 | > 10 | ≤ 100 | COc1ccc2c(SCC(=O)c3ccc(CNC(=O)C(C)(C)C)s3)nc(C)nc2c1 [Example 12, N-((5-(2-((7-methoxy-2-methylquinazolin-4-yl)thio)acetyl)thiophen-2-yl)methyl)pivalamide]
– | 100 to 500 | > 10 | ≤ 100 | Cn1ncc2c(SCC(=O)c3ccc(CNS(C)(=O)=O)s3)ncnc21 [Compound 87]
– | 100 to 500 | > 10 | ≤ 100 | CN(Cc1ccc(C(=O)CSc2ncnc3c2cnn3C)s1)C(=O)C(C)(C)C [Example 33, N-methyl-N-((5-(2-((1-methyl-1H-pyrazolo[3,4-d]pyrimidin-4-yl)thio)acetyl)thiophen-2-yl)methyl)pivalamide]
– | 100 to 500 | > 10 | ≤ 100 | Cc1nnc(SCC(=O)c2ccc(CNC(=O)C(C)(C)C)s2)c2ccccc12 [Example 194, N-((5-(2-((4-methylphthalazin-1-yl)thio)acetyl)thiophen-2-yl)methyl)pivalamide]
– | 100 to 500 | > 10 | ≤ 100 | Cn1ncc2c(SCC(=O)c3ccc(CN4CCCC4=O)s3)ncnc21 [Example 25, 1-((5-(2-((1-methyl-1H-pyrazolo[3,4-d]pyrimidin-4-yl)thio)acetyl)thiophen-2-yl)methyl)pyrrolidin-2-one]
– | 100 to 500 | > 10 | ≤ 100 | CS(=O)(=O)N1CCC(c2ccc(C(=O)CSc3nc(C(F)(F)F)nc4ccccc34)s2)C1 (centres unmarked) [Compound 95, 1-(5-(1-(methylsulfonyl)163yrrolidine-3-yl)thiophen-2-yl)-2-((2-(trifluoromethyl)quinazolin-4-yl)thio)ethanone]
– | 100 to 500 | > 10 | ≤ 100 | Cc1nc(SCC(=O)c2ccc(CNC(=O)C(C)(C)C)s2)c2cccc(F)c2n1 [Example 15, N-((5-(2-((8-fluoro-2-methylquinazolin-4-yl)thio)acetyl)thiophen-2-yl)methyl)pivalamide]
– | ≤ 100 | > 10 | ≤ 100 | Cn1ncc2c(SCC(=O)c3ccc(CNC(=O)Cc4cccnc4)s3)ncnc21 [Compound 56, N-((5-(2-((1-methyl-1H-pyrazolo[3,4-d]pyrimidin-4-yl)thio)acetyl)thiophen-2-yl)methyl)-2-(160yrrolid-3-yl)acetamide]
– | 1000 to 10000 | > 10 | ≤ 100 | COCC(=O)NCc1ccc(C(=O)CSc2ncnc3c2cnn3C)s1 [Compound 58, 2-methoxy-N-((5-(2-((1-methyl-1H-pyrazolo[3,4-d]pyrimidin-4-yl)thio)acetyl)thiophen-2-yl)methyl)acetamide]
– | 100 to 500 | > 10 | ≤ 100 | Cn1ncc2c(SCC(=O)c3ccc(CNC(=O)C(C)(C)C)s3)nc(C(F)(F)F)nc21 [Example 20, N-((5-(2-((1-methyl-6-(trifluoromethyl)-1H-pyrazolo[3,4-d]pyrimidin-4-yl)thio)acetyl)thiophen-2-yl)methyl)pivalamide]
– | 1000 to 10000 | > 10 | ≤ 100 | O=C(NCCc1ccc(C(=O)CSc2nc(C(F)(F)F)nc3ccccc23)s1)c1ccccc1 [Example 37, N-(2-(5-(2-((2-(trifluoromethyl)quinazolin-4-yl)thio)acetyl)thiophen-2-yl)ethyl)benzamide]
– | 100 to 500 | > 10 | ≤ 100 | CC1CCN(Cc2ccc(C(=O)CSc3ncnc4c3cnn4C)s2)C1=O (centres unmarked) [Example 24, 3-methyl-1-((5-(2-((1-methyl-1H-pyrazolo[3,4-d]pyrimidin-4-yl)thio)acetyl)thiophen-2-yl)methyl)pyrrolidin-2-one]
– | 500 to 1000 | > 10 | ≤ 100 | Cn1ncc2c(SCC(=O)c3cc(F)c(CNC(=O)C(C)(C)C)s3)ncnc21 [Example 28, N-((3-fluoro-5-(2-((1-methyl-1H-pyrazolo[3,4-d]pyrimidin-4-yl)thio)acetyl)thiophen-2-yl)methyl)pivalamide]
